Experimental findings from article PMC8041784, “Preference of Proteomonas sulcata anion channelrhodopsin for NO3^− revealed using a pH electrode method” (Scientific Reports, 2021) are described below.

For assay [1], the target named is T1, GtACR1 (Guillardia theta, UniProt L1J207).
T1 construct: gene GUITHDRAFT_111593; 295 residues, C-terminal 8xHis tag, codon-optimised gene, expressed in Pichia pastoris SMD1168H cells; also purified in DDM
The experiment in a line: light-induced pH change of yeast cell suspension (pH electrode). The assay is classed as cell-based. The settings on record: 300 mM NaNO3; 530 nm LED 10 mW/cm^2; initial pH about 5; about 16 °C.

The target of assay [2] is T1, GtACR1. The experiment in a line: visible absorption spectrum of purified protein. The format is binding. The settings on record: covalent (retinal protonated Schiff base); 10 mM MOPS pH 7, 1 M NaCl, 0.05% DDM.

T1 sequence (L1J207 entry or part of it): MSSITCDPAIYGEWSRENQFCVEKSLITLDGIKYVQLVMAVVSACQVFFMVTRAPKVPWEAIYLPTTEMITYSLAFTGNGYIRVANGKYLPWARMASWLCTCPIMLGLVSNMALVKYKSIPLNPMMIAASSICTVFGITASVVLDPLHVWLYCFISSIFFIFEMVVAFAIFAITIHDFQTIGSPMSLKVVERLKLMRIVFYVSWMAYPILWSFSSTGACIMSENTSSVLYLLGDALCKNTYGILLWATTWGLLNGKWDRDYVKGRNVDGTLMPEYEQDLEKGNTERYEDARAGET

Regarding `O=[N+]([O-])O` [NO3^−], the “light-induced pH change of yeast cell suspension (pH electrode)” value on GtACR1 [1] is “significant transport activities were obtained for the anions except for F^− and Asp^−”.

Consider `CC1=C(/C=C/C(C)=C/C=C/C(C)=C/C=O)C(C)(C)CCC1` [all-trans-retinal], for which the “visible absorption spectrum of purified protein” value on GtACR1 [2] is “Visible absorption spectrum of purified GtACR1”.
